In ChEMBL document CHEMBL1143383, “Novel heteroaromatic organofluorine inhibitors of fructose-1,6-bisphosphatase” (J Med Chem, 2009):
pIC50: −log10 of the molar value.

Target: T1, Fructose-1,6-bisphosphatase 1 (Mus musculus, UniProt Q9QXD6)
T1 sequence (Q9QXD6 whole entry): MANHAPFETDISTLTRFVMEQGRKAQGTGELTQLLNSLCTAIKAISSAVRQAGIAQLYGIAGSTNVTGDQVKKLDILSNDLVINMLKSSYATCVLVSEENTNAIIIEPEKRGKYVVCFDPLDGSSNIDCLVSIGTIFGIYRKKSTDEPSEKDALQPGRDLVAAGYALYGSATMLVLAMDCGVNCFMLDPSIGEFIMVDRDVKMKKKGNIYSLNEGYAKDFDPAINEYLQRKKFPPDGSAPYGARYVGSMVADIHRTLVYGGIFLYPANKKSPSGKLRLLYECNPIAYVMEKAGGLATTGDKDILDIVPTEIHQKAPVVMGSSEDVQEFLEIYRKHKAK
Assay: Inhibition of fructose-1,6-bisphosphatase in mouse liver homogenates by colorimetric phosphate assay
Format: tissue-based

SMILES	pIC50
O=[N+]([O-])c1ccc(S(=O)(=O)n2cccc2)cc1	3.96
COC(=O)c1ccc2[nH]c3ccccc3c2c1	< 3.52
CCOC(=O)C(O)(c1c[nH]c2ccc(I)cc12)C(F)(F)F (stereo not drawn)	4.88
O=S(=O)(c1ccccc1)n1cccc1	4.12
O=[N+]([O-])c1ccc(S(=O)(=O)n2c3ccccc3c3ccccc32)cc1	3.75
COc1ccc(S(=O)(=O)n2c3ccccc3c3ccccc32)cc1	< 3.60
Fc1ccc(-c2cc(-c3ccc(F)cc3)n(-c3cccc(C(F)(F)F)c3)n2)cc1	4.12
COc1ccc(S(=O)(=O)n2ccc3ccccc32)cc1	< 3.52
CCOC(=O)CC(O)(c1[nH]c(C)cc1C)C(F)(F)F (stereo not drawn)	5.32
COc1ccc2[nH]c3c(C)ccc(C)c3c2c1	< 3.52
O=[N+]([O-])c1ccc(-n2nc(-c3ccccc3)cc2-c2ccccc2)cc1	< 3.52
O=S(=O)(c1ccc2ccccc2c1)n1ccc2ccccc21	< 3.52
FC(F)(F)c1cccc(-n2nc(-c3ccccc3)cc2-c2ccccc2)c1	5.22
O=C(c1ccc(F)cc1)n1ccc2ccccc21	3.89
Fc1ccc(-c2cc(-c3ccc(F)cc3)n(-c3ccccc3)n2)cc1	3.82
O=C(c1ccc(C(F)(F)F)cc1)n1ccc2ccccc21	5.51
CCOC(=O)C(O)(c1ccc[nH]1)C(F)(F)F (stereo not drawn)	4.59
COc1ccc(S(=O)(=O)n2cccc2)cc1	3.61
CCOC(=O)CC(O)(c1cccn1C)C(F)(F)F (stereo not drawn)	4.38
CCOC(=O)C(O)(c1cn(C)c2ccccc12)C(F)(F)F (stereo not drawn)	4.93
Cc1ccc(S(=O)(=O)n2cccc2)cc1	< 3.52
O=S(=O)(c1ccc2ccccc2c1)n1c2ccccc2c2ccccc21	< 3.52
CCOC(=O)CC(O)(c1ccc[nH]1)C(F)(F)F (stereo not drawn)	4.59
O=[N+]([O-])c1ccc(S(=O)(=O)n2ccc3ccccc32)cc1	3.73
Cc1ccccc1S(=O)(=O)n1cccc1	< 3.60
CCOC(=O)C(O)(c1c[nH]c2ccc(C)cc12)C(F)(F)F (stereo not drawn)	4.44
O=C(c1ccc([N+](=O)[O-])cc1)n1ccc2ccccc21	< 3.52
O=S(=O)(c1ccccc1)n1ccc2ccccc21	3.92
